In patent US10125100B2, “Kinase inhibitors” (Respivert Limited, priority 2014, dated 2018):

Tested on: Jurkat cells
Assay: (r) Cell cytotoxicity assay
Format: cell-based, human
Conditions: 24 hours
Procedure: 1×10^5 Jurkat cells (immortalised human T lymphocytes) are added to the appropriate number of wells of a 96 well plate in 100 μL of media (RPMI supplemented with 10% foetal bovine serum). 1 μL of DMSO control (final concentration 1.0% v/v) or test compound (final concentration 20, 5 or 1 μg/mL) is added to the wells and incubated at 37° C., 5% CO2. After 24 hours, the plate is centrifuged at 1200 rpm for 3 minutes and the supernatant discarded. Cells are then resuspended in 150 μL (final concentration 7.5 μg/mL) of propidium iodide (PI) in PBS and incubated at 37° C., 5% CO2 for 15 minutes. After 15 minutes, cells are analysed by flow cytometry (BD accuri) using the FL3 window. The % viability is calculated as the % of cells that are PI negative in the test wells normalised to the DMSO control.

Row | SMILES | % Viability at 1 μg/mL [%] | % Viability at 5 μg/mL [%] | % Viability at 20 μg/mL [%]
1 | COc1cc(Nc2cc(Oc3ccc(NC(=O)Nc4cc(C(C)(C)C)cc(NS(C)(=O)=O)c4OC)c4ccccc34)ccn2)ccc1C(=O)N[C@@H](CO)C(=O)O [17(bj), (S)-2-(4-((4-((4-(3-(5-(tert-Butyl)-2-methoxy-3-(methylsulfonamido)phenyl)ureido)-naphthalen-1-yl)oxy)pyridin-2-yl)amino)-2-methoxybenzamido)-3-hydroxypropanoic acid] | 96.2 | 96.6 | 94.8
2 | COc1cc(Nc2cc(Oc3ccc(NC(=O)Nc4cc(NS(C)(=O)=O)cc(C(C)(C)C)c4)c4ccccc34)ccn2)ccc1C(=O)NCCC1CCN(C)CC1 [17(bs), 4-((4-((4-(3-(3-(tert-Butyl)-5-(methylsulfonamido)phenyl)ureido)naphthalen-1-yl)oxy)pyridin-2-yl)amino)-2-methoxy-N-(2-(1-methylpiperidin-4-yl)ethyl)benzamide] | 90.9 | 48.7 | 0.3
3 | COc1cc(Nc2cc(Oc3ccc(NC(=O)Nc4cc(C(C)(C)C)cc(NS(C)(=O)=O)c4OC)c4ccccc34)ccn2)ccc1C(=O)N(C)CCN1CCN(C)CC1 [17(bh), 4-((4-((4-(3-(5-(tert-Butyl)-2-methoxy-3-(methylsulfonamido)phenyl)ureido)naphthalen-1-yl)oxy)pyridin-2-yl)amino)-2-methoxy-N-methyl-N-(2-(4-methylpiperazin-1-yl)ethyl)benzamide] | 99.5 | 67.8 | 0.6
4 | COc1cc(Nc2nccc(Oc3ccc(NC(=O)Nc4cc(C(C)(C)C)cc(NS(C)(=O)=O)c4OC)c4ccccc34)n2)ccc1S(N)(=O)=O [Example 28, 4-((4-((4-(3-(5-(tert-Butyl)-2-methoxy-3-(methylsulfonamido)phenyl)ureido)naphthalen-1-yl)oxy)pyrimidin-2-yl)amino)-2-methoxybenzenesulfonamide] | 100.0 | 41.1 | 18.9
5 | COc1cc(Nc2cc(Oc3ccc(NC(=O)Nc4cc(NS(C)(=O)=O)cc(C(C)(C)C)c4)c4ccccc34)ccn2)ccc1C(=O)NCCN1CCN(C)CC1 [17(bo), 4-((4-((4-(3-(3-(tert-Butyl)-5-(methylsulfonamido)phenyl)ureido)naphthalen-1-yl)oxy)pyridin-2-yl)amino)-2-methoxy-N-(2-(4-methylpiperazin-1-yl)ethyl)benzamide] | 98.5 | 45.3 | 14.0
6 | COc1cc(Nc2cc(Oc3ccc(NC(=O)Nc4cc(C(C)(C)C)cc(NS(C)(=O)=O)c4OC)c4ccccc34)ccn2)ccc1C(=O)NCCC1(O)CCN(C)CC1 [17(bg), 4-((4-((4-(3-(5-(tert-Butyl)-2-methoxy-3-(methylsulfonamido)phenyl)ureido)naphthalen-1-yl)oxy)pyridin-2-yl)amino)-N-(2-(4-hydroxy-1-methylpiperidin-4-yl)ethyl)-2-methoxy benzamide] | 86.5 | 60.0 | 0.3
7 | COc1cc(Nc2cc(Oc3ccc(NC(=O)Nc4cc(C(C)(C)C)cc(NS(C)(=O)=O)c4OC)c4ccccc34)ccn2)ccc1C(=O)N[C@H]1C(O)O[C@H](CO)[C@@H](O)[C@@H]1O (stereo partly drawn) [17(br), 4-((4-((4-(3-(5-(tert-Butyl)-2-methoxy-3-(methylsulfonamido)phenyl)ureido)naphthalen-1-yl)oxy)pyridin-2-yl)amino)-2-methoxy-N-((3R,4R,5S,6R)-2,4,5-trihydroxy-6-(hydroxymethyl)tetrahydro-2H-pyran-3-yl)benzamide] | 91.8 | 90.7 | 79.2
8 | COc1cc(Nc2nccc(Oc3ccc(NC(=O)Nc4cc(C(C)(C)C)cc(NS(C)(=O)=O)c4OC)c4ccccc34)n2)cc(OC)c1C(=O)NCCN1CCN(C)CC1 [17(az), 4-((4-((4-(3-(5-(tert-Butyl)-2-methoxy-3-(methylsulfonamido)phenyl)ureido)naphthalen-1-yl)oxy)pyrimidin-2-yl)amino)-2,6-dimethoxy-N-(2-(4-methylpiperazin-1-yl)ethyl)benzamide] | 105.4 | 93.1 | 4.5
9 | COc1c(NC(=O)Nc2ccc(Oc3ccnc(Nc4ccc(P(C)(=O)O)c(N(C)C)c4)c3)c3ccccc23)cc(C(C)(C)C)cc1NS(C)(=O)=O [Example 68, [4-[[4-[[4-[[5-tert-Butyl-3-(methanesulfonamido)-2-methoxy-phenyl]carbamoylamino]-1-naphthyl]oxy]-2-pyridyl]amino]-2-(dimethylamino)phenyl]-methyl-phosphinic acid] | 95.6 | 92.7 | 90.2
10 | COc1cc(Nc2cc(Oc3ccc(NC(=O)Nc4cc(C(C)(C)C)cc(NS(C)(=O)=O)c4OC)c4ccccc34)ccn2)ccc1C(=O)NCCCCCN(C)C [17(bd), 4-((4-((4-(3-(5-(tert-Butyl)-2-methoxy-3-(methylsulfonamido)phenyl)ureido)naphthalen-1-yl)oxy)pyridin-2-yl)amino)-N-(5-(dimethylamino)pentyl)-2-methoxybenzamide] | 85.8 | 28.7 | 0.1
11 | COc1cc(Nc2cc(Oc3ccc(NC(=O)Nc4cc(C(C)(C)C)cc(NS(C)(=O)=O)c4OC)c4ccccc34)ccn2)ccc1-c1nn[nH]n1 [Example 24, N-(5-(tert-Butyl)-2-methoxy-3-(3-(4-((2-((3-methoxy-4-(2H-tetrazol-5-yl)phenyl)amino)pyridin-4-yl)oxy)naphthalen-1-yl)ureido)phenyl)methanesulfonamide] | 104.3 | 92.4 | 9.7
12 | COc1cc(Nc2cc(Oc3ccc(NC(=O)Nc4cc(C(C)(C)C)cc(NS(C)(=O)=O)c4OC)c4ccccc34)ccn2)ccc1C(=O)NCCN1CC[C@@H](O)C1 [17(cr), (R)-4-((4-((4-(3-(5-(tert-Butyl)-2-methoxy-3-(methylsulfonamido)phenyl)ureido)-naphthalen-1-yl)oxy)pyridin-2-yl)amino)-N-(2-(3-hydroxypyrrolidin-1-yl)ethyl)-2-methoxybenzamide] | 81.1 | 18.0 | 0.9
13 | CCN1CCN(CCNC(=O)c2ccc(Nc3cc(Oc4ccc(NC(=O)Nc5cc(C(C)(C)C)cc(NS(C)(=O)=O)c5OC)c5ccccc45)ccn3)cc2OC)CC1 [17(be), 4-((4-((4-(3-(5-(tert-Butyl)-2-methoxy-3-(methylsulfonamido)phenyl)ureido)naphthalen-1-yl)oxy)pyridin-2-yl)amino)-N-(2-(4-ethylpiperazin-1-yl)ethyl)-2-methoxybenzamide] | 92.4 | 0.7 | 0.5
14 | COc1cc(Nc2cc(Oc3ccc(NC(=O)Nc4cc(C(C)(C)C)cc(NS(C)(=O)=O)c4OC)c4ccccc34)ccn2)ccc1CP(C)(=O)O [Example 70, (4-((4-((4-(3-(5-(tert-Butyl)-2-methoxy-3-(methylsulfonamido)phenyl)ureido)naphthalen-1-yl)oxy)pyridin-2-yl)amino)-2-methoxybenzyl)(methyl)phosphinic acid] | 95.3 | 91.9 | 63.8
15 | COc1cc(Nc2cc(Oc3ccc(NC(=O)Nc4cc(C(C)(C)C)cc(NS(C)(=O)=O)c4OC)c4ccccc34)ccn2)ccc1C(=O)N[C@@H]1CCN(C)C1 [17(cq), (R)-4-((4-((4-(3-(5-(tert-Butyl)-2-methoxy-3-(methylsulfonamido)phenyl)ureido)-naphthalen-1-yl)oxy)pyridin-2-yl)amino)-2-methoxy-N-(1-methylpyrrolidin-3-yl)benzamide] | 74.3 | 9.0 | 0.7
16 | COc1cc(Nc2cc(Oc3ccc(NC(=O)Nc4cc(C(C)(C)C)cc(NS(C)(=O)=O)c4OC)c4ccccc34)ccn2)ccc1C(=O)NCCNC(=O)CCC(=O)O [17(cd), 4-((2-(4-((4-((4-(3-(5-(tert-Butyl)-2-methoxy-3-(methylsulfonamido)phenyl)ureido)-naphthalen-1-yl)oxy)pyridin-2-yl)amino)-2-methoxybenzamido)ethyl)amino)-4-oxobutanoic acid] | 96.4 | 96.5 | 91.4
17 | COc1cc(Nc2cc(Oc3ccc(NC(=O)Nc4cc(C(C)(C)C)cc(NS(C)(=O)=O)c4OC)c4ccccc34)ccn2)ccc1C(=O)NCCN1CCN(C(=O)CCC(=O)O)CC1 [17(ck), 4-(4-(2-(4-((4-((4-(3-(5-(tert-Butyl)-2-methoxy-3-(methylsulfonamido)phenyl)ureido)-naphthalen-1-yl)oxy)pyridin-2-yl)amino)-2-methoxybenzamido)ethyl)piperazin-1-yl)-4-oxobutanoic acid] | 96.1 | 96.1 | 95.5
18 | COc1cc(Nc2cc(Oc3ccc(NC(=O)Nc4cc(C(C)(C)C)cc(NS(C)(=O)=O)c4OC)c4ccccc34)ccn2)cc(OC)c1C(=O)N1CCN(CCN(C)C)CC1 [17(cg), N-(5-(tert-Butyl)-3-(3-(4-((2-((4-(4-(2-(dimethylamino)ethyl)piperazine-1-carbonyl)-3,5-dimethoxyphenyl)amino)pyridin-4-yl)oxy)naphthalen-1-yl)ureido)-2-methoxyphenyl)methane sulfonamide] | 96.1 | 95.3 | 92.3
